# Tests used:
# V193A-SrtA (Sortase A) = target: T1, V193A-SrtA (Sortase A) (Staphylococcus aureus, UniProt Q2FV99, V193A); assay: fluorescence quenching binding constant (KA); FRET inhibition reduced vs WT
# T1 construct: residues 60–206 (pG-srtAΔN59, pGEX-6P-1)
# Sortase A (srtA) = target: T2, Sortase A (srtA) (Staphylococcus aureus, UniProt Q2FV99); assay: FRET peptide cleavage assay with purified SrtA; binding also by fluorescence quenching (KA […] L/mol); assay type: biochemical
# T2 construct: residues 60–206 (pG-srtAΔN59, pGEX-6P-1)
# R197A-SrtA (Sortase A) = target: T3, R197A-SrtA (Sortase A) (Staphylococcus aureus, UniProt Q2FV99, R197A); assay: fluorescence quenching binding constant (KA); FRET inhibition reduced vs WT
# T3 construct: residues 60–206 (pG-srtAΔN59, pGEX-6P-1)
smiles,measurement,setting,value
COc1ccc(CCc2cc(OC)c(OC)c(OC)c2)cc1O [erianin],Kd,V193A-SrtA (Sortase A),2280 nM
same,IC50,Sortase A (srtA),65700 ± 7200 nM
same,Kd,R197A-SrtA (Sortase A),2530 nM

# Source: publication PMC6215257, “Erianin against Staphylococcus aureus Infection via Inhibiting Sortase A” (Toxins, 2018)
